In ChEMBL document CHEMBL2040717, “Cytotoxic diterpenoids from Sapium insigne” (J Nat Prod, 2012) one finds Activity and IC50 data, which are given here for seven compounds.

Experiment [1] deals with A549. Description: Cytotoxicity against human A549 cells at 100 uM by SRB assay. The format is functional, cell-based.
For experiment [2], the system named is HL-60. Nature of the experiment: Cytotoxicity against human HL60 cells at 100 uM by MTT assay. A general note: Tetrazolium assays rely on reduction of a dye to a coloured formazan, in cell work by metabolically active cells.
The test system of experiment [3] is A549. Description: Cytotoxicity against human A549 cells by SRB assay. In kind it is functional, cell-based. Background: In SRB staining, fixed cells bind dye roughly in proportion to their protein.
In experiment [4] the test system is HL-60. Nature of the experiment: Cytotoxicity against human HL60 cells by MTT assay.

Calls of active or inactive are those of the source. The rule behind the calls is not given here.

Consider `C[C@H]1C[C@@]23CC[C@@H]4C(C)(C)CCC[C@@]4(C)[C@@H]2CC[C@@H]1C3`, for which the outcome in the experiment on A549 [1] and in the experiment on HL-60 [2] was inactive.

What is called IC50 is the point on the concentration scale where inhibition reaches its midpoint. In the experiment with A549 [3], `CCCCCCCC/C=C/C=C/CC(=O)O[C@@]12C[C@@H](C)[C@@]3(O)[C@@H](C=C(CO)C[C@]4(O)C(=O)C(C)=C[C@@H]34)[C@@H]1[C@@]2(C)COC(C)=O` [SAPINSIGNOID D] displayed an IC50 of 900 nM.

On to `CCCCCCCC[C@@H](O)/C=C/C=C/C(=O)O[C@@]12C[C@@H](C)[C@@]3(O)[C@@H](C=C(CO)C[C@]4(O)C(=O)C(C)=C[C@@H]34)[C@@H]1[C@@]2(C)COC(C)=O` [SAPINSIGNOID A], for which the IC50 in the experiment with A549 [3] was 1800 nM; in the experiment on HL-60 [4], 3400 nM.

On to `CCCCCCCC[C@H](O)/C=C/C=C/C(=O)O[C@@]12C[C@@H](C)[C@@]3(O)[C@@H](C=C(CO)C[C@]4(O)C(=O)C(C)=C[C@@H]34)[C@@H]1[C@@]2(C)COC(C)=O` [SAPINSIGNOID B], for which the figures for the IC50 with A549 [3] and with HL-60 [4] were 200 nM and 6500 nM, respectively.

Consider `C[C@H]1C[C@]23CC[C@H]1C[C@H]2[C@]1(C)CCCC(C)(C)[C@H]1CC3`, for which the result with A549 [1] and in the experiment on HL-60 [2] was inactive.

On to `CCCCCCCCC(=O)/C=C/C=C/C(=O)O[C@@]12C[C@@H](C)[C@@]3(O)[C@@H](C=C(CO)C[C@]4(O)C(=O)C(C)=C[C@@H]34)[C@@H]1[C@@]2(C)COC(C)=O` [SAPINSIGNOID C], for which the IC50 with A549 [3] amounted to 400 nM; in the experiment with HL-60 [4] it was 2700 nM.

In the case of `CC[C@H](C)CC[C@@H]1[C@H](C)CC[C@@H]2C(C)(C)CCC[C@@]12C`, the result in the experiment with A549 [1] and in the experiment on HL-60 [2] was inactive.
